Assay: in vitro
Conditions: human, hela cells

Compound | viability at 28.5 h, 10 µM (% viability) [%] | also measured
COc1ccc(C(NC(=O)Cc2ccc(-n3nnnc3C)cc2)c2ccccc2)cc1 (stereo not shown) [CBK285537] | 92.8 | –
O=C(CCc1nc2ccccc2c(=O)[nH]1)N1CCN(Cc2ccc(Cl)s2)CC1 [CBK296937] | 83.9 | –
COc1cc(S(=O)(=O)NCCCn2ccnc2)ccc1Cl [CBK269186] | 89.1 | –
O=C(CN1C(=O)N2CCN=C2c2ccc(Cl)cc21)NCC1CC1 [CBK282877] | 94.2 | –
COc1cc(NC(=O)CCc2ccccc2)nc(OC)n1 [CBK072282] | 79.5 | –
Cc1ccc(N(Cc2ccco2)C(=O)c2cccc(S(=O)(=O)N3CCOCC3)c2)cc1 [CBK265857] | 96.4 | –
N#Cc1ccc(NC(=O)CC2(CC(=O)O)CCCC2)cc1 [CBK286979] | 89.5 | –
CC(Cc1cccs1)NC(=O)c1cc2c([nH]c1=O)CCCCC2 (stereo not shown) [CBK282523] | 109 | –
COc1cc(CN2CCN(C(=O)c3cccc4ccccc34)CC2)cc(OC)c1O [CBK263477] | 103 | –
O=C(NCCCc1ccccc1Cl)c1ccc(=O)n(CC(=O)N2CCCCC2)c1 [CBK286078] | 85.9 | –
Clc1ccc(CN2CCC(Oc3nccnc3OCCN3CCOCC3)CC2)cc1 [CBK082918T] | 92.5 | –
CCOC(=O)N1CCC2(CC1)OCc1ccc(Oc3ccncc3)cc1O2 [CBK174776] | – | viability at 28.5 h, 10 µM (% viability, bulk resorufin, single well): 102%
O=[N+]([O-])c1ccc(OC(CNS(=O)(=O)c2ccc(Cl)cc2)c2ccccc2)cc1 (stereo not shown) [CBK262817] | 93 | –
CCc1c(C)nc(N)nc1N1N=C1SC(C(C)=O)C(C)=O [CBK268558] | 99.4 | –
O=C(NNC(=O)c1cccnc1)c1ccc(NC(=O)c2ccco2)cc1 [CBK266792] | 111 | –
Cc1ccc(-c2nc3ccc(C)cc3c(C(=O)OCC(=O)c3cccc([N+](=O)[O-])c3)c2C)cc1 [CBK264436] | 104 | –
O=C(c1nccs1)C1CCN(C(=O)CC2CCCC2)CC1 [CBK284207] | 107 | –
CCCN1CCC(NC(=O)Cn2c(C3CC3)nc3ccccc32)CC1 [CBK304917] | 89.2 | –
O=S(=O)(NCC1COc2ccccc2O1)c1cc(Cl)sc1Cl (stereo not shown) [CBK057394] | 85.4 | –
CC(=O)Nc1ccc(S(=O)(=O)N2CCN(c3cc4[nH]c(=O)[nH]c4cc3[N+](=O)[O-])CC2)cc1 [CBK267013] | 97.7 | –
Cc1[nH]nc(O)c1Cc1ccccc1F [CBK105306] | 97.1 | –
Cc1ccc(C(=O)O)cc1S(=O)(=O)NCCCO [CBK267171] | 96.9 | –

Compound | viability at 28.5 h, 10 µM (% viability) [%] | also measured
CCOC(=O)c1cnc2ccc(OC)cc2c1NCCN1CCOCC1 [CBK304199] | 87.7 | –
Oc1ccc(-c2cncc(Nc3cccc(Br)c3)n2)cc1 [CBK107803] | 84.8 | –
O=C(NC1CCCCC1)N1Cc2nc[nH]c2C[C@H]1c1nc(-c2ccc3c(c2)OCO3)no1 [CBK289000] | 95.7 | –
COCCCn1c(SCc2csc(-c3ccc(C)cc3)n2)n[nH]c1=O [CBK295657] | 93.3 | –
O=[N+]([O-])c1ccc(C2CNC(c3ccccc3O)O2)cc1 (stereo not shown) [CBK262298] | 94 | –
Clc1ccc(-c2ccc(N3CCN(CCN4CCCC4)CC3)nc2)cc1 [CBK037623] | 97.8 | –
CC(C)(C)Oc1nc(=O)[nH]c(=O)[nH]1 [CBK007194] | 98.3 | –
Cc1ccc(C(=O)COC(=O)c2cccc(C)c2O)cc1[N+](=O)[O-] [CBK264081] | 90.5 | –
COc1cncc(-c2ccc(N3CCN(C(=O)c4ccco4)CC3)nc2)c1 [CBK037801] | 96.7 | –
CC(C)(C)n1cc(C(=O)N2CCNCC2c2cccc(Cl)c2)cn1 (stereo not shown) [CBK304112] | 96.9 | –
c1ccc2sc([C@H]3CCNC3)nc2c1 [CBK289389] | 91.2 | –
CN=C(S)N=C(Nc1ccccc1)c1ccccc1 [CBK261037] | 89.1 | –
Cc1cccc(-c2ncc(NC(=O)CCc3cccnc3)nc2-c2ccc(N)cc2)c1 [CBK036684] | 86.9 | –
O=C(O)c1ccc(OCCN2CCOCC2)cc1 [CBK287038] | 94.5 | –
Cn1c(CO)nnc1[C@H]1C[C@@H](NC(=O)CCc2ccc(F)cc2F)C1 [CBK306796] | 86.4 | –
CC(C)n1ncc2c1NC(=O)CC2c1ccc2c(c1)n(C)c(=O)n2C (stereo not shown) [CBK287926] | 108 | –
O=C(c1ccc2ncccc2c1)N1CCN(C(=O)c2ccco2)CC1 [CBK144461] | 94 | –
CN(Cc1ccccc1)C(=O)[C@H]1C[C@@H](O)[C@H](O)[C@@H]2N=C(Nc3ccc(Cl)cc3)S[C@@H]21 [CBK288949] | 105 | –
CCN(CC)C(=O)CNS(=O)(=O)c1ccc(C)cc1 [CBK034491] | 103 | –
CN(C)c1cccc(-c2nc(-c3ccc(C#N)cc3)cnc2N)c1 [CBK064049] | 91.5 | –
O=C(CSc1nc[nH]n1)c1ccc2c(c1)OCCO2 [CBK267360] | 101 | –
COc1ccc(Nc2nc(-c3cccnc3)cnc2N)cc1 [CBK063952] | 90.3 | –

Compound | viability at 28.5 h, 10 µM (% viability) [%] | also measured
COc1cccc([C@H]2CN(C(=O)c3ccccc3)[C@@H]3CCN(Cc4ccsc4)C[C@H]23)c1 [CBK285611] | 104 | –
FC(F)(F)c1cccc(OCc2nnn[nH]2)c1 [CBK269466] | 88.4 | –
O=C(Nc1ccc(F)cc1)c1cccc(NS(=O)(=O)c2cc(Br)c(Cl)s2)c1 [CBK050410] | 93.4 | –
COc1ccccc1-c1nnc(SCC(=O)N2CCN(c3ccccc3)CC2)[nH]1 [CBK270105] | 95.6 | –
CN(C)CCCN[C@H]1CC[C@@H](c2ccccc2)CC1 [CBK016465] | 96.2 | –
O=C(NCC1(O)CCSCC1)c1cc2ccccc2[nH]1 [CBK305199] | 94.9 | –
CN(C)CCNc1cc(-c2ccncc2)nc2ccccc12 [CBK066898B] | 90.4 | –
CS(=O)(=O)Nc1nccnc1N1CCN(Cc2ccc([N+](=O)[O-])cc2)CC1 [CBK084274] | 103 | –
COc1ccccc1-c1ccc(CC2(C(=O)NCc3ccc(F)cc3)CCOCC2)cc1 [CBK286518] | 100 | –
COc1cc(/C=C2\NC(=O)N(Cc3ccc([N+](=O)[O-])cc3)C2=O)ccc1OC(C)C(=O)O (stereo not shown) [CBK265348] | 107 | –
Cc1nc(-c2ccccc2)sc1CNC(=O)CCC(F)(F)F [CBK092365] | 102 | –
COc1ccc(COc2nc3c(c(=O)n(C)c(=O)n3C)n2Cc2ccc(Cl)c(Cl)c2)cc1 [CBK268779] | 91.3 | –
CC1CCN(c2nc(-c3ccccc3O)nc3ccccc23)CC1 [CBK066899] | 109 | –
COc1ccc(-c2nc(NC(=O)CC#N)cnc2-c2ccc(F)cc2)cc1 [CBK037198] | 104 | –
CCc1cccc2c(CN3CCc4nc(C)[nH]c(=O)c4C3)c[nH]c12 [CBK283931] | 94.6 | –
O=C(CCOc1ccccc1)Nc1c(F)cc(F)cc1OC1CCNCC1 [CBK045897T] | 105 | –
Cc1ccc2cc(CN(CCNC(=O)OC(C)(C)C)C(=O)NCc3ccccc3)c(=O)[nH]c2c1C [CBK132097] | 90.2 | –
CCc1nnc(NS(=O)(=O)c2ccc(NC(=O)c3ccccc3[N+](=O)[O-])cc2)s1 [CBK045494] | 94.2 | –
Cc1nn(C)c(C)c1CC(=O)N1CCc2c(sc3ncnc(N)c23)C1 [CBK306065] | 86.9 | –
CCN(CC)C(=O)C1CCCN(C(=O)Nc2ccc(Cl)cc2)C1 (stereo not shown) [CBK156136] | 90.1 | –
CCN1C(=O)C2(CC(=O)N(CCc3scnc3C)C2=O)c2cc(C)ccc21 (stereo not shown) [CBK075217] | 96.8 | –
Cc1ccc(S(=O)(=O)N2CCN(C(=O)CSc3nnc4sc5ccccc5n34)CC2)cc1 [CBK265961] | 90.5 | –

Compound | viability at 28.5 h, 10 µM (% viability) [%] | also measured
CCCC/C=C/c1cn2ccnc2c(NCc2cc(OC)c(OC)c(OC)c2)n1 [CBK066331] | 93.1 | –
COC(=O)c1c(N=C(S)NN2CCN(C)CC2)sc2c1CCC(C)C2 (stereo not shown) [CBK267125] | 83.9 | –
O=C(NCCCN1CCOCC1)c1ccncc1 [CBK264561F] | 110 | –
C=CCN1C(=O)C2(Nc3ccccc3C(=O)N2c2ccc(Cl)cc2)c2ccccc21 (stereo not shown) [CBK093474] | 106 | –
CN1CCN(S(=O)(=O)c2ccc(F)cc2)CC1 [CBK050491] | 88 | –
CC(Oc1ccccc1F)C(=O)N1CCCCC1CN(C)C (stereo not shown) [CBK281544] | 89.5 | –
Cc1cc(F)c(S(N)(=O)=O)cc1NC(=O)CN1CCOCC1 [CBK051649C] | 104 | –
Cc1nc2c(Oc3ncccn3)cccn2c1N(C)C(=O)C1CCCCC1 [CBK147161] | 99.1 | –
O=C(NCCN1CCCCC1)C1CC(=O)N(Cc2ccccc2)C1 (stereo not shown) [CBK305150] | 96.5 | –
O=C1CSC2(C(=O)Nc3ccccc32)N1c1ccc([N+](=O)[O-])cc1 (stereo not shown) [CBK026035] | 93.5 | –
c1ccc(CCN2CCN(Cc3cccnc3)CC2)cc1 [CBK126424] | 103 | –
O=C(O)C[C@@H]1CCN(C(=O)Nc2ccccc2)C[C@@H]1CCN1CCCCC1 [CBK288782] | 110 | –
c1csc(-c2cn3ccnc3c(NCC3CC3)n2)c1 [CBK066754] | 93.7 | –
CCc1ccc(NC(=O)N2CCCCC2CCn2ccnc2)cc1 (stereo not shown) [CBK307453] | 110 | –
OC1(c2cccnc2F)CCN(Cc2ccccc2F)CC1 [CBK284372] | 91 | –
CC1Cc2cc(C(=O)N3CCCCC3CN(C)C)ccc2O1 (stereo not shown) [CBK282193] | 110 | –
Nc1c(C(=O)c2ccc3c(c2)OCO3)sc2nc(-c3cccnc3)ccc12 [CBK270186] | 86.3 | –
O=C(NCCO)c1ccc(CSc2nc3sc4c(c3c(=O)[nH]2)CCCC4)cc1 [CBK263522] | 96.6 | –
C/C(=C1/SC(=S)N(c2cccc(C(=O)O)c2)C1=O)c1cccc([N+](=O)[O-])c1 [CBK265168] | 100 | –
Fc1ccc(-c2nccnc2OCc2ccccn2)cc1 [CBK106894] | 99.6 | –
COc1ccc(C(=O)NNC(=O)c2cc(OC)cc(OC)c2)cc1 [CBK262616] | 96 | –
CNC(=O)Oc1ccccc1/C=N/N(C)C [CBK023194] | – | viability at 28.5 h, 10 µM: 97.5%
